From patent publication US12077503B2, “Substituted cyclic amides and their use as herbicides” (FMC CORPORATION, priority 2015, dated 2024)

How the values were obtained:
Type in all cases: in vivo
[1] = system: Kochia (Kochia scoparia); assay: Test A preemergence; settings: for Plant response rating, Kochia: 125 g ai/ha, preemergence, 0 to 100 scale (0 no effect, 100 complete control); for Kochia plant response rating (0 to 100 scale, 0 is no effect, 100 is complete control): Preemergence, 500 g ai/ha, visual injury approx. 10 d
How it was run: (§1)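 In a loam soil and sand blend, planted seeds got a preemergence directed soil spray, and young plants at the one- to two-leaf stage, 2–10 cm high, got a postemergence application; ~10 d greenhouse hold; injury rated visually, 0 = none, 100 = complete control.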

[2] = system: barnyardgrass (Echinochloa crus-galli); assay: Test A preemergence; settings: for Plant response rating, Barnyardgrass: 125 g ai/ha, preemergence, 0 to 100 scale (0 no effect, 100 complete control); for Barnyardgrass plant response rating (0 to 100 scale, 0 is no effect, 100 is complete control): Preemergence, 500 g ai/ha, visual injury approx. 10 d
How it was run: as §1

[3] = system: giant foxtail (Setaria faberii); assay: Test A preemergence; settings: for Plant response rating, Foxtail, Giant: 125 g ai/ha, preemergence, 0 to 100 scale (0 no effect, 100 complete control); for Foxtail, Giant plant response rating (0 to 100 scale, 0 is no effect, 100 is complete control): Preemergence, 500 g ai/ha, visual injury approx. 10 d
How it was run: as §1

[4] = system: pigweed (Amaranthus retroflexus); assay: Test A preemergence; settings: for Plant response rating, Pigweed: 125 g ai/ha, preemergence, 0 to 100 scale (0 no effect, 100 complete control); for Pigweed plant response rating (0 to 100 scale, 0 is no effect, 100 is complete control): Preemergence, 500 g ai/ha, visual injury approx. 10 d
[5] = system: ragweed (common ragweed, Ambrosia elatior); assay: Test A preemergence; settings: for Plant response rating, Ragweed: 125 g ai/ha, preemergence, 0 to 100 scale (0 no effect, 100 complete control); for Ragweed plant response rating (0 to 100 scale, 0 is no effect, 100 is complete control): Preemergence, 500 g ai/ha, visual injury approx. 10 d
How it was run: as §1

[6] = system: ryegrass, Italian (Italian ryegrass, Lolium multiflorum); assay: Test A preemergence; settings: for Plant response rating, Ryegrass, Italian: 125 g ai/ha, preemergence, 0 to 100 scale (0 no effect, 100 complete control); for Ryegrass, Italian plant response rating (0 to 100 scale, 0 is no effect, 100 is complete control): Preemergence, 500 g ai/ha, visual injury approx. 10 d
How it was run: as §1

[7] = system: Galium (catchweed bedstraw, Galium aparine); assay: Test A postemergence; settings: postemergence; for Galium plant response rating: 125 g ai/ha, visual injury rating on 0 to 100 scale (0 no effect, 100 complete control), approx. 10 d; for Plant response rating, Galium: 500 g ai/ha, 0 to 100 scale, 0 no effect, 100 complete control
How it was run: as §1

[8] = system: Kochia (Kochia scoparia); assay: Test A postemergence; settings: postemergence; for Kochia plant response rating: 125 g ai/ha, visual injury rating on 0 to 100 scale (0 no effect, 100 complete control), approx. 10 d; for Plant response rating, Kochia: 500 g ai/ha, 0 to 100 scale, 0 no effect, 100 complete control
How it was run: as §1

[9] = system: barnyardgrass (Echinochloa crus-galli); assay: Test A postemergence; settings: postemergence; for Barnyardgrass plant response rating: 125 g ai/ha, visual injury rating on 0 to 100 scale (0 no effect, 100 complete control), approx. 10 d; for Plant response rating, Barnyardgrass: 500 g ai/ha, 0 to 100 scale, 0 no effect, 100 complete control
How it was run: as §1

[10] = system: blackgrass (Alopecurus myosuroides); assay: Test A postemergence; settings: postemergence; for Blackgrass plant response rating: 125 g ai/ha, visual injury rating on 0 to 100 scale (0 no effect, 100 complete control), approx. 10 d; for Plant response rating, Blackgrass: 500 g ai/ha, 0 to 100 scale, 0 no effect, 100 complete control
How it was run: as §1

[11] = system: corn (Zea mays); assay: Test A postemergence; settings: postemergence; for Corn plant response rating: 125 g ai/ha, visual injury rating on 0 to 100 scale (0 no effect, 100 complete control), approx. 10 d; for Plant response rating, Corn: 500 g ai/ha, 0 to 100 scale, 0 no effect, 100 complete control
How it was run: as §1

[12] = system: giant foxtail (Setaria faberii); assay: Test A postemergence; settings: postemergence; for Foxtail, Giant plant response rating: 125 g ai/ha, visual injury rating on 0 to 100 scale (0 no effect, 100 complete control), approx. 10 d; for Plant response rating, Foxtail, Giant: 500 g ai/ha, 0 to 100 scale, 0 no effect, 100 complete control
How it was run: as §1

[13] = system: pigweed (Amaranthus retroflexus); assay: Test A postemergence; settings: postemergence; for Pigweed plant response rating: 125 g ai/ha, visual injury rating on 0 to 100 scale (0 no effect, 100 complete control), approx. 10 d; for Plant response rating, Pigweed: 500 g ai/ha, 0 to 100 scale, 0 no effect, 100 complete control
How it was run: as §1

[14] = system: ragweed (common ragweed, Ambrosia elatior); assay: Test A postemergence; settings: postemergence; for Ragweed plant response rating: 125 g ai/ha, visual injury rating on 0 to 100 scale (0 no effect, 100 complete control), approx. 10 d; for Plant response rating, Ragweed: 500 g ai/ha, 0 to 100 scale, 0 no effect, 100 complete control
How it was run: as §1

[15] = system: ryegrass, Italian (Italian ryegrass, Lolium multiflorum); assay: Test A postemergence; settings: postemergence; for Ryegrass, Italian plant response rating: 125 g ai/ha, visual injury rating on 0 to 100 scale (0 no effect, 100 complete control), approx. 10 d; for Plant response rating, Ryegrass, Italian: 500 g ai/ha, 0 to 100 scale, 0 no effect, 100 complete control
How it was run: as §1

[16] = system: wheat (Triticum aestivum); assay: Test A postemergence; settings: postemergence; for Wheat plant response rating: 125 g ai/ha, visual injury rating on 0 to 100 scale (0 no effect, 100 complete control), approx. 10 d; for Plant response rating, Wheat: 500 g ai/ha, 0 to 100 scale, 0 no effect, 100 complete control
How it was run: as §1

[17] = system: barnyardgrass (Echinochloa crus-galli); assay: Test B flooded paddy test; settings: Flood, 250 g ai/ha; 0 to 100 scale where 0 is no effect and 100 is complete control; 13 to 15 d
How it was run: (§2)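 Plants at 2-leaf stage flooded to 3 cm above soil, with compounds applied directly to paddy water and that depth maintained. Plants kept in greenhouse 13–15 d. Visual rating versus controls on a 0 (no effect) to 100 (complete control) scale.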

[18] = system: ducksalad (Heteranthera limosa); assay: Test B flooded paddy test; settings: Flood, 250 g ai/ha; 0 to 100 scale where 0 is no effect and 100 is complete control; 13 to 15 d
How it was run: as §2

[19] = system: rice (Oryra sativa); assay: Test B flooded paddy test; settings: Flood, 250 g ai/ha; 0 to 100 scale where 0 is no effect and 100 is complete control; 13 to 15 d
How it was run: as §2

[20] = system: sedge, umbrella (small-flower umbrella sedge, Cyperus difformis); assay: Test B flooded paddy test; settings: Flood, 250 g ai/ha; 0 to 100 scale where 0 is no effect and 100 is complete control; 13 to 15 d
How it was run: as §2

SMILES | Plant response rating, Kochia [1] | Kochia plant response rating (0 to 100 scale, 0 is no effect, 100 is complete control) [1] | Plant response rating, Barnyardgrass [2] | Barnyardgrass plant response rating (0 to 100 scale, 0 is no effect, 100 is complete control) [2] | Plant response rating, Foxtail, Giant [3] | Foxtail, Giant plant response rating (0 to 100 scale, 0 is no effect, 100 is complete control) [3] | Plant response rating, Pigweed [4] | Pigweed plant response rating (0 to 100 scale, 0 is no effect, 100 is complete control) [4] | Plant response rating, Ragweed [5] | Ragweed plant response rating (0 to 100 scale, 0 is no effect, 100 is complete control) [5] | Plant response rating, Ryegrass, Italian [6] | Ryegrass, Italian plant response rating (0 to 100 scale, 0 is no effect, 100 is complete control) [6] | Galium plant response rating [7] | Plant response rating, Galium [7] | Kochia plant response rating [8] | Plant response rating, Kochia [8] | Barnyardgrass plant response rating [9] | Plant response rating, Barnyardgrass [9] | Blackgrass plant response rating [10] | Plant response rating, Blackgrass [10] | other results
CN1CC(c2ccc3c(c2)OC(F)(F)O3)C(C(=O)Nc2ccc(F)cc2F)C1=O (stereo not drawn) [Compound 444] | 60 | 80 | 90 | 90 | 90 | 90 | 80 | 80 | 50 | 80 | 40 | 90 | 60 | 70 | 40 | 80 | 80 | 90 | 70 | 60 | Corn plant response rating [11]: 60; Plant response rating, Corn [11]: 70; Foxtail, Giant plant response rating [12]: 80; Plant response rating, Foxtail, Giant [12]: 80; Pigweed plant response rating [13]: 50; Plant response rating, Pigweed [13]: 80; Ragweed plant response rating [14]: 20; Plant response rating, Ragweed [14]: 40; Ryegrass, Italian plant response rating [15]: 50; Plant response rating, Ryegrass, Italian [15]: 80; Wheat plant response rating [16]: 50; Plant response rating, Wheat [16]: 50; Plant response rating, Barnyardgrass [17]: 75; Plant response rating, Ducksalad [18]: 100; Plant response rating, Rice [19]: 0; Plant response rating, Sedge, Umbrella [20]: 0
O=C1NCC(c2cccc(C#Cc3ccccc3)c2)C1C(=O)Nc1cccc(F)c1F (stereo not drawn) [Compound 451] | 0 | 0 | 0 | 0 | 0 | 0 | 0 | 0 | 0 | 0 | 0 | 0 | 0 | 0 | 0 | 0 | 0 | 0 | 0 | 0 | Corn plant response rating [11]: 0; Plant response rating, Corn [11]: 0; Foxtail, Giant plant response rating [12]: 0; Plant response rating, Foxtail, Giant [12]: 0; Pigweed plant response rating [13]: 0; Plant response rating, Pigweed [13]: 0; Ragweed plant response rating [14]: 0; Plant response rating, Ragweed [14]: 0; Ryegrass, Italian plant response rating [15]: 0; Plant response rating, Ryegrass, Italian [15]: 0; Wheat plant response rating [16]: 0; Plant response rating, Wheat [16]: 0; Plant response rating, Barnyardgrass [17]: 0; Plant response rating, Ducksalad [18]: 0; Plant response rating, Rice [19]: 0; Plant response rating, Sedge, Umbrella [20]: 0
CS(=O)(=O)c1ccccc1NC(=O)C1C(=O)NCC1c1ccc(Br)cc1 (stereo not drawn) [Compound 452] | 60 | 70 | 60 | 90 | 90 | 90 | 80 | 90 | 20 | 60 | 0 | 30 | 50 | 50 | 50 | 70 | 20 | 70 | 0 | 60 | Corn plant response rating [11]: 0; Plant response rating, Corn [11]: 0; Foxtail, Giant plant response rating [12]: 60; Plant response rating, Foxtail, Giant [12]: 80; Pigweed plant response rating [13]: 50; Plant response rating, Pigweed [13]: 70; Ragweed plant response rating [14]: 0; Plant response rating, Ragweed [14]: 30; Ryegrass, Italian plant response rating [15]: 0; Plant response rating, Ryegrass, Italian [15]: 20; Wheat plant response rating [16]: 0; Plant response rating, Wheat [16]: 20; Plant response rating, Barnyardgrass [17]: 0; Plant response rating, Ducksalad [18]: 100; Plant response rating, Rice [19]: 0; Plant response rating, Sedge, Umbrella [20]: 0
